These results are taken from PubChem BioAssay (NCI).

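Dose response: 5 concentrations. Exposure: 48 h. Format: 96-well plates. Endpoint: linear interpolation; highest concentration if not reached. TGI: concentration producing complete growth inhibition.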

Test systems include A549 NSCLC; DU-145 prostate; EKVX NSCLC; HCT-116 colon; HL-60(TB) leukemia; MDA-MB-231 breast; SK-OV-3 ovarian; SNB-19 CNS; SR leukemia; UO-31 renal.
Holding throughout (test): NCI tumour cell line growth inhibition, 48 h

As to `CNC(=O)/C(C#N)=C(\N)N1CCCC1`, the TGI with A549 NSCLC, in the test on DU-145 prostate, in the test on EKVX NSCLC, with HCT-116 colon, with HL-60(TB) leukemia and in the test on MDA-MB-231 breast was > 100 µM in each case. Also, the TGI in the test with SK-OV-3 ovarian, in the test with SNB-19 CNS, in the test with SR leukemia and in the test with UO-31 renal was > 100 µM in each case.
Consider `CCOP(=O)(OCC)C(Cc1cn(S(=O)(=O)c2ccc(C)cc2)cn1)C(=O)O` (stereo not given), for which the TGI in the test with A549 NSCLC, in the test with DU-145 prostate, in the test with EKVX NSCLC, with HCT-116 colon, in the test with HL-60(TB) leukemia and in the test on MDA-MB-231 breast was > 100 µM each time. Further, the TGI in the test with SK-OV-3 ovarian, in the test on SNB-19 CNS, in the test with SR leukemia and in the test with UO-31 renal was > 100 µM throughout.
As to `O=c1oc2c(Cl)cc(Cl)cc2cc1-c1cn2c(n1)sc1ccccc12`, the TGI is > 100 µM in the test on A549 NSCLC; > 100 µM in the test with DU-145 prostate; > 100 µM in the test on EKVX NSCLC; > 100 µM with HCT-116 colon; 66.9 µM in the test with HL-60(TB) leukemia; > 100 µM in the test on MDA-MB-231 breast. Further, the TGI with SK-OV-3 ovarian is > 100 µM; in the test with SNB-19 CNS, > 100 µM; with SR leukemia, 53.1 µM; in the test on UO-31 renal it was > 100 µM.
With `CCc1c[n+]2c(cc1C1=CN3c4ccccc4[C@]45CCN6C/C(=C/CO)[C@H](C[C@H]64)[C@@H]([C@@H]1O)[C@H]35)-c1[nH]c3ccccc3c1CC2`, the TGI in the test with A549 NSCLC, with DU-145 prostate, with EKVX NSCLC, with HCT-116 colon, in the test on HL-60(TB) leukemia and in the test with MDA-MB-231 breast was > 50 µM in each case. The TGI in the test on SK-OV-3 ovarian, with SNB-19 CNS, in the test with SR leukemia and in the test on UO-31 renal was > 50 µM in each case.
`CC(NC(=O)C(NC(=O)C(NC(=O)C(F)(F)F)C(C)C)C(C)C)C(=O)Oc1c(Cl)c(Cl)c(Cl)c(Cl)c1Cl` (stereo not given): the TGI in the test on A549 NSCLC, in the test on DU-145 prostate, in the test with EKVX NSCLC, in the test with HCT-116 colon, with HL-60(TB) leukemia and in the test with MDA-MB-231 breast was > 100 µM throughout. Further, the TGI with SK-OV-3 ovarian, with SNB-19 CNS, with SR leukemia and with UO-31 renal was > 100 µM each time.
Consider `CCOC(=O)/C(C(N)=O)=C(/O)c1cnccn1`, for which the TGI with A549 NSCLC, with DU-145 prostate, in the test with EKVX NSCLC, in the test with HCT-116 colon, in the test on HL-60(TB) leukemia and with MDA-MB-231 breast was > 100 µM throughout. The TGI with SK-OV-3 ovarian, in the test with SNB-19 CNS, with SR leukemia and in the test with UO-31 renal was > 100 µM each time.
Turning to `O=C(NC12CC3CC(CC(C3)C1)C2)n1cnc2c(Cl)ncnc21`, the TGI with A549 NSCLC is > 100 µM; with DU-145 prostate, 63.9 µM; in the test with EKVX NSCLC, 71.8 µM; in the test with HCT-116 colon, > 100 µM; in the test with HL-60(TB) leukemia, 16.9 µM; with MDA-MB-231 breast, > 100 µM. In addition, the TGI in the test with SK-OV-3 ovarian was 79.4 µM; with SNB-19 CNS, > 100 µM; in the test with SR leukemia, 29 µM; in the test on UO-31 renal, > 100 µM.
For `CCCC(CCC(=O)O)(CCC(=O)O)[N+](=O)[O-]`, the TGI with A549 NSCLC, in the test with DU-145 prostate, with EKVX NSCLC, in the test on HCT-116 colon, with HL-60(TB) leukemia and with MDA-MB-231 breast was > 100 µM each time. Also, the TGI in the test on SK-OV-3 ovarian, in the test with SNB-19 CNS, with SR leukemia and with UO-31 renal was > 100 µM each time.
With `C1=Nc2ccc(cc2)-c2ccc(cc2)N=Cc2ccccc2OCc2cccc(n2)COc2ccccc21`, the TGI in the test with A549 NSCLC is > 100 µM; with DU-145 prostate, > 100 µM; in the test on EKVX NSCLC, > 100 µM; in the test with HCT-116 colon, > 100 µM; with HL-60(TB) leukemia it was > 100 µM; in the test on MDA-MB-231 breast, > 66.3 µM. The TGI with SK-OV-3 ovarian was > 100 µM; with SNB-19 CNS, 46.4 µM; in the test with SR leukemia it was > 100 µM; with UO-31 renal it was > 100 µM.
`COc1cc([C@@H]2c3cc4c(cc3[C@H](OC3OC5COC(C(C)C)OC5C(O)C3O)C3COC(=O)[C@@H]32)OCO4)cc(OC)c1OC` (stereo not given in full): the TGI in the test with A549 NSCLC is > 100 µM; with DU-145 prostate, 55.5 µM; in the test on EKVX NSCLC, > 100 µM; in the test with HCT-116 colon, 7.8 µM; with HL-60(TB) leukemia, > 25.8 µM; in the test with MDA-MB-231 breast it was 19.2 µM. Also, the TGI in the test on SK-OV-3 ovarian was > 100 µM; with SNB-19 CNS it was > 40.6 µM; in the test with SR leukemia, 66.5 µM; in the test on UO-31 renal, 42.1 µM.
On to `CN(C)CCNC(=O)c1cccc2c(NC(CCCN=C(N)N)C(=O)O)c3ccccc3nc12` (stereo not given), for which the TGI in the test with A549 NSCLC is > 100 µM; in the test with DU-145 prostate, > 100 µM; in the test on EKVX NSCLC, 30.1 µM; with HCT-116 colon, 67.8 µM; in the test with HL-60(TB) leukemia, > 100 µM; with MDA-MB-231 breast it was > 100 µM. The TGI with SK-OV-3 ovarian was > 100 µM; with SNB-19 CNS it was 47 µM; in the test with SR leukemia, > 100 µM; in the test on UO-31 renal it was > 100 µM.
On to `Nc1nc(Cl)cc(Oc2ccc(Cl)cc2)n1`, for which the TGI in the test with A549 NSCLC, in the test on DU-145 prostate, in the test with EKVX NSCLC, with HCT-116 colon, in the test with HL-60(TB) leukemia and in the test on MDA-MB-231 breast was > 100 µM throughout. Besides, the TGI in the test on SK-OV-3 ovarian, with SNB-19 CNS, with SR leukemia and in the test with UO-31 renal was > 100 µM each time.
Regarding `CN1CN(c2ccccc2)C2(CCN(C(=O)OC(C)(C)C)CC2)C1=O`, the TGI with A549 NSCLC, in the test on DU-145 prostate, with EKVX NSCLC, in the test on HCT-116 colon, in the test with HL-60(TB) leukemia and in the test with MDA-MB-231 breast was > 100 µM each time. The TGI with SK-OV-3 ovarian, in the test with SNB-19 CNS, in the test on SR leukemia and in the test on UO-31 renal was > 100 µM in each case.
